Assay results from BindingDB's records for PubMed 11504829 (University of Melbourne, 2001).
pKi: −log10 of the molar value.

Assays:
[1] = biological target: T1, Muscarinic acetylcholine receptor M5 (Homo sapiens, UniProt P08912)
T1 sequence (P08912 whole entry): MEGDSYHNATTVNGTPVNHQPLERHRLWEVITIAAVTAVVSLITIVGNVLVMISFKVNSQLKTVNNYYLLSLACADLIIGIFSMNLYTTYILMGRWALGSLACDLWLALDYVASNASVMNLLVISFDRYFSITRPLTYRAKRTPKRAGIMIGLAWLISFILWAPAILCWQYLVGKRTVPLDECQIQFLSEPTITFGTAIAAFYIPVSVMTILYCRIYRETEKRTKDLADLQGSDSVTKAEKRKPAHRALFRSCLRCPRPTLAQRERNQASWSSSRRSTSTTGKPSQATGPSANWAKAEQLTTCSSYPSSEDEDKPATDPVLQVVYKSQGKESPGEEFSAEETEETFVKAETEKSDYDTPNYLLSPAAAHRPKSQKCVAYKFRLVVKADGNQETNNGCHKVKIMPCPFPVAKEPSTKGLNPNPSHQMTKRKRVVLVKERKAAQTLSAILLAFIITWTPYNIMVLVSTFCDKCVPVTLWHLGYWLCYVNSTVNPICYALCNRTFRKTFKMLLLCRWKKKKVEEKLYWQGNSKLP

[2] = biological target: T2, Muscarinic acetylcholine receptor M2 (Rattus norvegicus, UniProt P10980)
T2 sequence (P10980 whole entry): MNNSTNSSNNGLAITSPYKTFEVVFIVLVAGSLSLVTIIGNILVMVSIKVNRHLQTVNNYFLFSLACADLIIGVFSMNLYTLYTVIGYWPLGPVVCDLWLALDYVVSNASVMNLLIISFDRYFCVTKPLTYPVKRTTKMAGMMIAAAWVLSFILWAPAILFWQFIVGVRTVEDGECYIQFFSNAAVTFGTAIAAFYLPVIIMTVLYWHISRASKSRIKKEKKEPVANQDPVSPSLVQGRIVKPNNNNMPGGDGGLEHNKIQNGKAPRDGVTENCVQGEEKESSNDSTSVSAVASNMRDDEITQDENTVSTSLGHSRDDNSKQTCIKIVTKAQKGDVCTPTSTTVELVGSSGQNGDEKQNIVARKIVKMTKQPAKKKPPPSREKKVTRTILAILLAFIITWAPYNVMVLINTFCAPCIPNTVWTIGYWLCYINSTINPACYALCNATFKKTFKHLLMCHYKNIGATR

[3] = biological target: T3, Muscarinic acetylcholine receptor M2 (Homo sapiens, UniProt P08172)
T3 sequence (P08172 whole entry): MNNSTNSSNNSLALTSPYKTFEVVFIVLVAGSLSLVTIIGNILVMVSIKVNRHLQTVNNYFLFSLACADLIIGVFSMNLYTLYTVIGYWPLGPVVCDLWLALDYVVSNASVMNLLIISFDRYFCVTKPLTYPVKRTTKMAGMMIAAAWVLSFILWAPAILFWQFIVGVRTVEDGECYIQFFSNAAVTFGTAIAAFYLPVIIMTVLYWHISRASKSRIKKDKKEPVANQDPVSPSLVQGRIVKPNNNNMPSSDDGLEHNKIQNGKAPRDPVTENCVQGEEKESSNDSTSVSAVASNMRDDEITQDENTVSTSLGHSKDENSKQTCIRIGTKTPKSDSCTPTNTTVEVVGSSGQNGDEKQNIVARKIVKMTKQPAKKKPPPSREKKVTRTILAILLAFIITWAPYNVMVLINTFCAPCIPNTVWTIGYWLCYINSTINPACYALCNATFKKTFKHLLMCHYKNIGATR

[4] = biological target: Muscarinic acetylcholine receptor M3 (Homo sapiens, UniProt P20309)
[5] = biological target: T4, Muscarinic acetylcholine receptor M1 (Homo sapiens, UniProt P11229)
T4 sequence (P11229 whole entry): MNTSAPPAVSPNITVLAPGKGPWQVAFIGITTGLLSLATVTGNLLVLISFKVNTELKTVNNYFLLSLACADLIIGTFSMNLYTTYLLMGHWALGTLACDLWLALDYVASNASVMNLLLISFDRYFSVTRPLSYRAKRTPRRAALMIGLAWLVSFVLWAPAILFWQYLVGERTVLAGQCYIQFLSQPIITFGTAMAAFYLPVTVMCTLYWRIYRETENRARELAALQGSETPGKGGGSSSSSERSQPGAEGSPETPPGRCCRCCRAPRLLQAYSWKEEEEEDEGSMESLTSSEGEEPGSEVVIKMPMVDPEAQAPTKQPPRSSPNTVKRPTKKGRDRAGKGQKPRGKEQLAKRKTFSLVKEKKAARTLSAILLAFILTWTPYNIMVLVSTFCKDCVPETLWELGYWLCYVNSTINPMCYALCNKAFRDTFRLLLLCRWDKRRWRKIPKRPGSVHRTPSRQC

[6] = biological target: T5, Muscarinic acetylcholine receptor M4 (Homo sapiens, UniProt P08173)
T5 sequence (P08173 whole entry): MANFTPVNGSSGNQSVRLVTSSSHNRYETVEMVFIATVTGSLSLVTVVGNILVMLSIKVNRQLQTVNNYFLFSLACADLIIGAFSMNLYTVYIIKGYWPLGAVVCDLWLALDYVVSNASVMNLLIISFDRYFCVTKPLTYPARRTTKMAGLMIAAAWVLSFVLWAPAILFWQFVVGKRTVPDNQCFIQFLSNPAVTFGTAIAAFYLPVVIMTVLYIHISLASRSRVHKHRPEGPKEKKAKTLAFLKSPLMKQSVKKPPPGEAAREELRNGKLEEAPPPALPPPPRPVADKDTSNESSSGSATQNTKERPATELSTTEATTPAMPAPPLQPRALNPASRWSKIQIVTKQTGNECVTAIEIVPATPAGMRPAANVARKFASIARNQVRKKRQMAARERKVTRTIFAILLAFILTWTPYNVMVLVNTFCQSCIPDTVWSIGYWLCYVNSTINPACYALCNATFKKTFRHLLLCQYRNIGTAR

Muscarinic acetylcholine receptor M3, sequence (P20309 whole entry): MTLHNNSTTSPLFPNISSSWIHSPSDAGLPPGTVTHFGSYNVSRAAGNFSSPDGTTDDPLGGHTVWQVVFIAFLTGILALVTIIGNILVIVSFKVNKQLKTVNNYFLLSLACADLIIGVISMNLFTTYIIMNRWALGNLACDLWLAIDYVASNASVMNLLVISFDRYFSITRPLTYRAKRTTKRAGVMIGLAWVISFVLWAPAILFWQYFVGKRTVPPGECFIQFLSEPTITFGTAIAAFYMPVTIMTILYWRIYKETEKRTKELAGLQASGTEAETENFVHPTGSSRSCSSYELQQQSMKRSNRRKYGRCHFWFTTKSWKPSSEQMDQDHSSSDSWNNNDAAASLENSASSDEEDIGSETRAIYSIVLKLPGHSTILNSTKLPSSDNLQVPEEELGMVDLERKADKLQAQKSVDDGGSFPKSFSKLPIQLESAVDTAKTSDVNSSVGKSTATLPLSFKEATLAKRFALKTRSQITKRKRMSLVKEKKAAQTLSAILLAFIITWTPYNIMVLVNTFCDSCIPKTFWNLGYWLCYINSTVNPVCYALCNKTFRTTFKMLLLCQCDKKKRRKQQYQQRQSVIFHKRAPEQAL

SMILES | pKi [1] | pKi [2] | pKi [3] | pKi [4] | pKi [5] | pKi [6]
C(#Cc1cccc(C#CCOc2nsnc2C2CN3CCC2CC3)c1)COc1nsnc1C1CN2CCC1CC2 (stereo unspecified) [NNC 11-1607] | 8.22 | 8.02 | 8.24 | 8.09 | 8.62 | 8.09
C(#Cc1ccccc1)COc1nsnc1C1CN2CCC1CC2 (stereo unspecified) | 7.83 | – | 7.23 | 7.11 | 7.38 | 7.31
C(#Cc1ccc(C#CCOc2nsnc2C2CN3CCC2CC3)cc1)COc1nsnc1C1CN2CCC1CC2 (stereo unspecified) [NNC 11-1585] | 8.28 | – | 10.10 | 8.33 | 9.89 | 8.59
